Where a SMILES comes first, the peptide text is derived from it. Bridges are numbered along the chain shown (N, C = ends). [ ]: non-standard residue; d: D form. Nle = CCCC[C@H](N)C(=O)O; Dab = NCC[C@H](N)C(=O)O
Tests used:
[1] = test system: Escherichia coli ATCC 25922 LptA E84D mutant; experiment: microbe, parasite or virus in culture; settings: Table S9 panel
Procedure: (§1) MIC assays [Clinical and Laboratory Standards Institute (CLSI) methodology] and serial passage studies were performed as described by Luther et al. ([6]). […] Resistant mutants were isolated, and their MIC values were determined and sent to Microbes NG (Birmingham, United Kingdom) for whole-genome sequencing and bioinformatic analysis.

[2] = test system: Klebsiella pneumoniae ATCC 43816 PglJ, PhnJ, ThiH mutant; experiment: microbe, parasite or virus in culture; settings: Table S9 panel; other mutation
Procedure: as §1

[3] = test system: K. pneumoniae ATCC 43816 (parent / WT); experiment: microbe, parasite or virus in culture
Procedure: as §1

[4] = test system: K. pneumoniae ATCC 43816 LptA Q62L mutant; experiment: microbe, parasite or virus in culture
Procedure: as §1

[5] = test system: E. coli ATCC 25922 (parent / WT); experiment: microbe, parasite or virus in culture
Procedure: as §1

[6] = test system: E. coli ATCC 25922 LptA Q62L mutant; experiment: microbe, parasite or virus in culture; settings: for MIC E. coli ATCC 25922 Q62L mutant: CLSI method, clone harboring LptA Q62L
Procedure: as §1

[7] = test system: Klebsiella pneumoniae ATCC 43816 LptA I36S mutant; experiment: microbe, parasite or virus in culture; settings: Table S9 panel
Procedure: as §1

[8] = test system: Klebsiella pneumoniae ATCC 43816 LptA I36N mutant; experiment: microbe, parasite or virus in culture; settings: Table S9 panel
Procedure: as §1

[9] = test system: Klebsiella pneumoniae NCTC 13443 LpxC, LpxD mutant; experiment: microbe, parasite or virus in culture; settings: Table S9 panel; other mutation
Procedure: as §1

[10] = test system: K. pneumoniae NCTC 13443 (NDM-1) (parent / WT); experiment: microbe, parasite or virus in culture
Procedure: as §1

[11] = test system: K. pneumoniae NCTC 13443 (NDM-1) LptA Q62L mutant; experiment: microbe, parasite or virus in culture; settings: for MIC K. pneumoniae NCTC 13443 (NDM-1) Q62L mutant: CLSI method, clone harboring LptA Q62L
Procedure: as §1

[12] = test system: Escherichia coli ATCC 25922 KdsD mutant; experiment: microbe, parasite or virus in culture; settings: Table S9 panel; other mutation
Procedure: as §1

[13] = test system: Klebsiella pneumoniae NCTC 13443 YejM mutant; experiment: microbe, parasite or virus in culture; settings: Table S9 panel; other mutation
Procedure: as §1

[14] = test system: Klebsiella pneumoniae NCTC 13443 LptA I36S mutant; experiment: microbe, parasite or virus in culture; settings: Table S9 panel
Procedure: as §1

[15] = test system: Klebsiella pneumoniae ATCC 43816 LptA L116Q mutant; experiment: microbe, parasite or virus in culture; settings: Table S9 panel
Procedure: as §1

[16] = test system: Klebsiella pneumoniae ATCC 43816 LapB mutant; experiment: microbe, parasite or virus in culture; settings: Table S9 panel; other mutation
Procedure: as §1

[17] = test system: K. pneumoniae 968733 (CST-R); experiment: MIC assay (CLSI); format: cell-based, Klebsiella pneumoniae; settings: CLSI method; colistin-resistant strain
Procedure: as §1

[18] = test system: Enterobacteriaceae (CS, Col-S) (n=22); format: cell-based; settings: CLSI microdilution; minimum and maximum MIC of the panel; carbapenem sensitive, colistin sensitive
Procedure: as §1

K. pneumoniae = format: cell-based, Klebsiella pneumoniae; settings: serial passage in broth at sub-MIC and multiples of the MIC
Procedure: as §1
(§2) Fig. S8. Resistance development studies by serial passage. Broth containing a single antibiotic at sub-MIC and multiples of the MIC were inoculated with bacteria. Drug concentrations were […]
(§3) day 1 and 2 of passaging.
(§4) (1 picture or pasted object on this page, not shown here)

E. coli = format: cell-based, Escherichia coli; settings: serial passage in broth at sub-MIC and multiples of the MIC
Procedure: as §1, §2, §3, §4

[19] = test system: panel of 121 Enterobacteriaceae including CRE, MDR, and XDR isolates; experiment: organism not typed; settings: CLSI microdilution method; 121 isolates
Procedure: as §1

LptAmQ62L = target: T1, LptAmQ62L (Escherichia coli, UniProt P0ADV1, Q62L); experiment: biochemical; format: binding, E. coli
T1 construct: His6-GB1 (N, cleaved yes); made in house; host or cells: E. coli BL21 (DE3)
T1 sequence (P0ADV1 28-159 Q62L): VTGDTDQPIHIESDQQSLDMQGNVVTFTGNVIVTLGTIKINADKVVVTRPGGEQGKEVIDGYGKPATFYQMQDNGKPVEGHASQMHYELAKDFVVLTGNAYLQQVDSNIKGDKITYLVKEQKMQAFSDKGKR
Procedure: (§5) Protein stocks were purified and concentrated in buffer 1 [50 mM Na-Pi (pH 7) and 150 mM NaCl] and, if necessary, diluted to desired concentrations using buffer 2 [50 mM Na-Pi (pH 7), 150 mM NaCl, and 0.05% Tween 20]. Peptide stocks and fluorescently labeled peptide stocks were made in buffer 2. Every serial dilution consisted of 24 wells, the first well with the highest concentrate and the last well (well 24) with the lowest. First, 50 μl of buffer 2 was added to the wells 2 to 24 of each serial dilution. Then, 100 μl of concentrated unlabeled peptide/protein in their respective buffers was added to the first well. Fifty microliters were taken from the first well and added to the second well for a 1:1 serial dilution and continued for the 24 wells. […] Plates were covered with adhesive seals and left to incubate overnight at 4°C before FP measurements the next day. Anisotropy was measured using the Tecan Safire2 plate reader using a 10-nm bandwidth and setting the excitation and emission wavelengths to 635 and 670 nm, respectively. The G-factor (G) was also determined empirically as 1.094 for the instrument and included in all the anisotropy calculations.
(§6) For the indirect binding assays, r was calculated in the same manner as the direct binding assays. […] The control was subtracted from r to yield r′. Data were fit to a sigmoidal interpolation model on GraphPad Prism 9, and an IC50 was generated for each unlabeled peptide or protein measured.

LptAm = target: T2, LptAm (Escherichia coli, UniProt P0ADV1); experiment: biochemical; format: binding, E. coli
T2 construct: His6-GB1 (N, cleaved yes); made in house; host or cells: E. coli BL21 (DE3)
T2 sequence (P0ADV1 28-159): as the sequence (P0ADV1 28-159 Q62L) above, with L35Q counted along it
Procedure: as §5, §6

Plasma protein binding [20] = format: in vitro ADME, mouse; settings: mouse, plasma, pH 7.5
Procedure: (§7) After ultrafiltration, protein binding was determined by subtracting the percentage of compound in ultrafiltrate from the total amount of compound in spiked plasma (table S4A).

human red blood cells = experiment: Haemolysis; format: cell-based; settings: PBS-washed human red blood cells; 1 h at 200 mg/liter, 37°C; OD 540 nm; versus 100% lysis control 2.5% Triton X-100; biological replicates
Procedure: To test their hemolytic potential, compounds were incubated in the presence of phosphate-buffered saline (PBS)–washed human red blood cells. After 1-hour incubation at 200 mg/liter and 37°C, the samples were centrifuged (3220g), the supernatants were diluted in Dulbecco’s PBS, and optical density at 540 nm was determined. The hemolysis induced by the compound was calculated versus a 100% lysis control prepared with 2.5% Triton X-100 (table S4A).

in vitro = format: cell-based; settings: human
Procedure: The cytotoxicity of compounds was determined by determining the number of viable cells using the Sigma Cell Counting Kit-8 (WST-8). HeLa cells were incubated at 37°C and 5% CO2 for 24 hours, after which the medium was replaced with fresh medium containing dilutions of compounds. […]

Plasma protein binding [21] = format: in vitro ADME, human; settings: human, plasma, pH 7.5
Procedure: as §7

## Colistin
[1]
  MIC Escherichia coli ATCC 25922 LptA E84D (1x): 0.25 µg/mL
[2]
  MIC Klebsiella pneumoniae ATCC 43816 PglJ, PhnJ, ThiH (1x): 0.13 µg/mL
[3]; CLSI method, parent strain
  MIC K. pneumoniae ATCC 43816 Parent: 0.125 micrograms per milliliter
[3]; Table S9 panel, WT
  MIC Klebsiella pneumoniae ATCC 43816 WT: 0.13 µg/mL
[4]; CLSI method, clone harboring LptA Q62L
  MIC K. pneumoniae ATCC 43816 Q62L mutant: 0.125 micrograms per milliliter
[4]; Table S9 panel
  MIC Klebsiella pneumoniae ATCC 43816 LptA Q62L (4x): 0.13 µg/mL
[5]; Table S9 panel, WT
  MIC Escherichia coli ATCC 25922 WT: 0.25 µg/mL
[6]
  MIC E. coli ATCC 25922 Q62L mutant: 0.25 micrograms per milliliter
[6]; Table S9 panel
  MIC Escherichia coli ATCC 25922 LptA Q62L (7x): 0.13 µg/mL
[7]
  MIC Klebsiella pneumoniae ATCC 43816 LptA I36S (1x): 0.13 µg/mL
[8]
  MIC Klebsiella pneumoniae ATCC 43816 LptA I36N (1x): ≤ 0.06 µg/mL
[9]
  MIC Klebsiella pneumoniae NCTC 13443 LpxC, LpxD (1x): 0.25 µg/mL
[10]; Table S9 panel, WT
  MIC Klebsiella pneumoniae NCTC 13443 WT: 0.25 µg/mL
[11]
  MIC K. pneumoniae NCTC 13443 (NDM-1) Q62L mutant: 0.125 micrograms per milliliter
[11]; Table S9 panel
  MIC Klebsiella pneumoniae NCTC 13443 LptA Q62L (5x): 0.13 µg/mL
[12]
  MIC Escherichia coli ATCC 25922 KdsD (2x): 0.25 µg/mL
[13]
  MIC Klebsiella pneumoniae NCTC 13443 YejM (1x): 0.25 µg/mL
[14]
  MIC Klebsiella pneumoniae NCTC 13443 LptA I36S (2x): 0.13 µg/mL
[15]
  MIC Klebsiella pneumoniae ATCC 43816 LptA L116Q (1x): 0.13 µg/mL
[16]
  MIC Klebsiella pneumoniae ATCC 43816 LapB (1x): 0.13 µg/mL
[17]
  MIC K. pneumoniae 968733 (CST-R) Parent: >8 micrograms per milliliter
[18]
  MIC range Enterobacteriaceae (CS, Col-S) (n=22): 0.06 to 0.5 µg/mL
K. pneumoniae
  Development of resistance, day of passaging, K. pneumoniae: 1 to 3 days
E. coli
  Development of resistance, day of passaging, E. coli: 5 to 7 days
[19]
  MIC50 (n=121): 0.13 µg/mL
  MIC90 (n=121): > 8 µg/mL

## CCCC[C@H](NC(=O)[C@H](CCCNC(=N)N)NC(=O)[C@H](CCN)NC(=O)[C@@H]1CSSC[C@H](NC(=O)[C@H](Cc2ccc(O)cc2)NC(=O)[C@@H](NC(=O)[C@@H](NC(=O)[C@@H]2CCCN2C(=O)[C@@H](NC(=O)[C@@H]2CCCN2C(=O)[C@H](CCCCN)NC(=O)[C@@H](N)CCCCN)C(C)C)[C@@H](C)CC)[C@@H](C)CC)C(=O)N[C@@H](CC(N)=O)C(=O)N[C@@H](CCCNC(=N)N)C(=O)N[C@@H](CCCNC(=N)N)C(=O)N[C@@H]([C@@H](C)O)C(=O)NCC(=O)N[C@@H](CCCCN)C(=O)N1)C(=O)O [Compound 1] (H-KKPVPIIYCNRRTGKC[Dab]R[Nle]-OH; disulfide 9-16)
LptAmQ62L
  IC50: 30.4 ± 8.8 nM
  Ki: 20.5 ± 6 nM
LptAm
  IC50: 6.6 ± 0.5 nM
  Ki: 1.1 ± 0.1 nM
Plasma protein binding [20]
  fraction unbound at 30 min, 10 mg/liter: 0.14
[3]; ATCC 43816
  MIC K. pneumoniae ATCC 43816 Parent: 0.25 micrograms per milliliter
[5]; CLSI method, parent strain
  MIC E. coli ATCC 25922 Parent: 0.063 micrograms per milliliter
[6]
  MIC E. coli ATCC 25922 Q62L mutant: >8 micrograms per milliliter
[10]; CLSI method, parent strain
  MIC K. pneumoniae NCTC 13443 (NDM-1) Parent: 0.5 micrograms per milliliter
[11]
  MIC K. pneumoniae NCTC 13443 (NDM-1) Q62L mutant: >8 micrograms per milliliter
Human red blood cells
  Haemolysis % at 0.2 g/L: 0%
In vitro
  IC50 at 48 h: 158000 nM
Plasma protein binding [21]
  fraction unbound at 30 min, 10 mg/liter: 0.24

From publication PMC10208570, “Peptidomimetic antibiotics disrupt the lipopolysaccharide transport bridge of drug-resistant Enterobacteriaceae” (Science Advances, 2023)
